Measured values reported in US20240309016A1, “MACROCYCLIC HETEROCYCLE COMPOUNDS AND USE THEREOF” (TAKEDA PHARMACEUTICAL COMPANY LIMITED, priority 2023, published 2024).

Target: T1, human OX2 receptor (Homo sapiens, UniProt O43614)
T1 construct: expressed in transfected cells
T1 sequence (O43614 1-444): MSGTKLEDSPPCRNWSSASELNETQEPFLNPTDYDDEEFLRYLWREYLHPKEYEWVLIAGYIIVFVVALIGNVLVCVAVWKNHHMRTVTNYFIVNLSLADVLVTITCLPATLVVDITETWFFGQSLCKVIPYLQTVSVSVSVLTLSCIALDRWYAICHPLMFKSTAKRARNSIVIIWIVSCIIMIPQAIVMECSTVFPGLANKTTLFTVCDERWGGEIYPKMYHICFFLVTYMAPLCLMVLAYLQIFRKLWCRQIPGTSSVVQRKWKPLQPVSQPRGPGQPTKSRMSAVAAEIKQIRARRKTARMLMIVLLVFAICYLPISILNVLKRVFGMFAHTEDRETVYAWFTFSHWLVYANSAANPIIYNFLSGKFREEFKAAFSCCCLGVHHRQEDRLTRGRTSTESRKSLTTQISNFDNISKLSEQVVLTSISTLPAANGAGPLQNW
Assay: Measurement of orexin type 2 receptor agonist activity (Experimental Example 2; Fluo-4 AM calcium fluorescence, FDSS μCELL)
Format: cell-based
Details: compound at 3 μM; CHO cells expressing human OX2 receptor; DMSO = 0%, 10 nM orexin A (human) = 100%
Protocol: In order to obtain cell clones that stably express human orexin type 2 receptor, human orexin type 2 (residues 1-444, NCBI Reference Sequence: AK314279) was constructed in a pcDNA3.1 (+) vector (Invitrogen) to express in mammalian cells. This plasmid DNA was transfected into CHO-K1 cells by electroporation, and stable clones were obtained by limiting dilution using resistance to G418 as a selection marker.
CHO cells in which human OX2 receptor was forcibly expressed were seeded at 10,000 cells/well into a 384-well black transparent bottom plate (BD falcon), and were incubated at 37° C., 5% CO2 for 1 day after incubation at room temperature for 30 minutes. After removing the cell plate medium, assay buffer containing calcium indicator A (HBSS (Thermo Fisher Scientific), 20 mM HEPES (Thermo Fisher Scientific), 0.1% BSA (Sigma-Aldrich), 2.5 μg/mL Fluo-4 AM (Dojin Kagaku), 0.08% Pluronic F127 (Dojin Kagaku), 1.25 mM probenecid (Dojin Kagaku)) was added at 30 μL/well. After incubation in a 5% CO2 incubator at 37° C. for 30 minutes, it was incubated at room temperature for another 30 minutes. Add 10 μL/well of the test compound diluted with assay buffer B (HBSS, 20 mM HEPES, 0.1% BSA), and use FDSS μCELL (Hamamatsu Photonics) to measure the fluorescence value every 1 second for 1 minute, and then every 2 seconds for 1 minute. It was measured for 1 minute and 40 seconds. The amount of fluorescence value when DMSO is added instead of the test compound is defined as 0%, and the amount of fluorescence value when orexin A (human) (Peptide Institute) with a final concentration of 10 nM is added is defined as 100%. The activity (%) of the test compound was calculated. Table 2-1, 2-2, 2-3, and 2-4 show the activity of each compound at a concentration of 3 μM.

Row | Compound | OX2R agonist activity (3 μM, %) [%]
1 | Cc1cnc2nc1Oc1cccc(c1F)C[C@H]1[C@@H](NS(C)(=O)=O)C(F)(F)CN1C(=O)[C@@H]1CCCN21 [Example 59, N-[(16aS,17R,21aS)-18,18,22-trifluoro-8-methyl-21-oxo-2,3,16a,17,18,19,21,21a-octahydro-1H,16H-5,9-(azeno)-11,15-(metheno)dipyrrolo[1,2-g:1′,2′-j][1,5,7,10]oxatriazacyclo-heptadecin-17-yl]methanesulfonamide] | 106
2 | CCS(=O)(=O)N[C@H]1[C@@H](F)CN2C(=O)NCc3ccc(Cl)c(n3)Oc3cccc(c3F)C[C@@H]12 [Example 24, N-[(15aS,16R,17S)-7-chloro-17,20-difluoro-1-oxo-2,3,15a,16,17,18-hexahydro-1H,15H-4,8-(azeno)-14,10-(metheno)pyrrolo[1,2-j][1,8,10]oxadiazacyclo-heptadecin-16-yl]ethanesulfonamide] | 104
3 | Cc1cnc2nc1Oc1cccc(c1F)C[C@H]1[C@@H](NS(C)(=O)=O)C(F)(F)CN1C(=O)CN2C [Example 75, N-[(15aS,16R)-17,17,20-trifluoro-3,7-dimethyl-1-oxo-2,3,15a,16,17,18-hexahydro-1H,15H-4,8-(azeno)-10,14-(metheno)pyrrolo[1,2-j][1,5,7,10]oxatriazacyclo-heptadecin-16-yl]methanesulfonamide] | 95
4 | CS(=O)(=O)N[C@@H]1[C@@H]2Cc3cccc(c3F)Oc3nc(ccc3C(F)F)CNC(=O)N2CC1(F)F [Example 41, N-[(15aS,16R)-7-(difluoromethyl)-17,17,20-trifluoro-1-oxo-2,3,15a,16,17,18-hexahydro-1H,15H-8,4-(azeno)-10,14-(metheno)pyrrolo[1,2-j][1,8,10]oxadiazacyclo-heptadecin-16-yl]methanesulfonamide] | 107
5 | CCS(=O)(=O)N[C@@H]1[C@@H]2Cc3cccc(c3F)Oc3nc(ccc3Cl)CNC(=O)N2CC1(F)F [Example 17, N-[(15aS,16R)-7-chloro-17,17,20-trifluoro-1-oxo-2,3,15a,16,17,18-hexahydro-1H,15H-4,8-(azeno)-14,10-(metheno)pyrrolo[1,2-j][1,8,10]oxadiazacyclo-heptadecin-16-yl]ethanesulfonamide] | 100
6 | CN1Cc2ccc(Cl)c(n2)Oc2cccc(c2F)C[C@H]2[C@@H](NS(C)(=O)=O)C(F)(F)CN2C1=O [Example 57, N-[(15aS,16R)-7-chloro-17,17,20-trifluoro-2-methyl-1-oxo-2,3,15a,16,17,18-hexahydro-1H,15H-4,8-(azeno)-14,10-(metheno)pyrrolo[1,2-j][1,8,10]oxadiazacyclo-heptadecin-16-yl]methanesulfonamide] | 108
7 | CS(=O)(=O)N[C@@H]1[C@@H]2Cc3cccc(c3)Oc3nc(ccc3Cl)CNC(=O)N2CC1(F)F [Example 92, N-[(15aS,16R)-7-chloro-17,17-difluoro-1-oxo-2,3,15a,16,17,18-hexahydro-1H,15H-4,8-(azeno)-14,10-(metheno)pyrrolo[1,2-j][1,8,10]oxadiazacyclohepta-decin-16-yl]methanesulfonamide] | 106
8 | CCS(=O)(=O)N[C@H]1[C@@H](F)CN2C(=O)N(C)Cc3ccc(Cl)c(n3)Oc3cccc(c3F)C[C@@H]12 [Example 73, N-[(15aS,16R,17S)-7-chloro-17,20-difluoro-2-methyl-1-oxo-2,3,15a,16,17,18-hexahydro-1H,15H-4,8-(azeno)-10,14-(metheno)pyrrolo[1,2-j][1,8,10]oxadiazacyclo-heptadecin-16-yl]ethanesulfonamide] | 101
9 | CCS(=O)(=O)N[C@H]1CCN2C(=O)NCc3nc(c(F)cc3F)Oc3cccc(c3)C[C@@H]12 [Example 20, N-[(15aS,16S)-5,7-difluoro-1-oxo-2,3,15a,16,17,18-hexahydro-1H,15H-4,8-(azeno)-14,10-(metheno)pyrrolo[1,2-j][1,8,10]oxadiazacyclo-heptadecin-16-yl]ethanesulfonamide] | 105
10 | CCS(=O)(=O)N[C@@H]1[C@@H]2Cc3cccc(c3F)Oc3nc(ccc3C)C(C)NC(=O)N2CC1(F)F (stereo partly drawn) [Example 49, N-[(15aS,16R)-17,17,20-trifluoro-3,7-dimethyl-1-oxo-2,3,15a,16,17,18-hexahydro-1H,15H-4,8-(azeno)-14,10-(metheno)pyrrolo[1,2-j][1,8,10]oxadiazacyclo-heptadecin-16-yl]ethanesulfonamide (optical isomer)] | 97
11 | CCS(=O)(=O)N[C@H]1[C@@H](F)CN2C(=O)NCc3ccc(F)c(n3)Oc3cccc(c3F)C[C@@H]12 [Example 31, N-[(15aS,16R,17S)-7,17,20-trifluoro-1-oxo-2,3,15a,16,17,18-hexahydro-1H,15H-4,8-(azeno)-14,10-(metheno)pyrrolo[1,2-j][1,8,10]oxadiazacyclo-heptadecin-16-yl]ethanesulfonamide] | 102
12 | CCS(=O)(=O)N[C@@H]1[C@@H]2Cc3cccc(c3F)Oc3nc(c(F)cc3F)CNC(=O)N2CC1(F)F [Example 21, N-[(15aS,16R)-5,7,17,17,20-pentafluoro-1-oxo-2,3,15a,16,17,18-hexahydro-1H,15H-4,8-(azeno)-14,10-(metheno)pyrrolo[1,2-j][1,8,10]oxadiazacyclo-heptadecin-16-yl]ethanesulfonamide] | 100

Next, values leading:

Row | OX2R agonist activity (3 μM, %) [%] | Compound
13 | 108 | Cc1ccc2nc1Oc1cccc(c1F)C[C@H]1[C@@H](NS(=O)(=O)C(C)C)C(F)(F)CN1C(=O)NC2 [Example 97, N-[(15aS,16R)-17,17,20-trifluoro-7-methyl-1-oxo-2,3,15a,16,17,18-hexahydro-1H,15H-4,8-(azeno)-14,10-(metheno)pyrrolo[1,2-j][1,8,10]oxadiazacyclo-heptadecin-16-yl]propane-2-sulfonamide]
14 | 105 | CCS(=O)(=O)N[C@H]1[C@@H](F)CN2C(=O)COc3ccc(C(F)F)c(n3)Oc3cccc(c3)C[C@@H]12 [Example 87, N-[(15aS,16R,17S)-7-(difluoromethyl)-17-fluoro-1-oxo-1,2,15a,16,17,18-hexahydro-15H-4,8-(azeno)-14,10-(metheno)pyrrolo[1,2-d][1,12,4]dioxazacyclo-heptadecin-16-yl]ethanesulfonamide]
15 | 101 | CCS(=O)(=O)N[C@H]1[C@@H](F)CN2C(=O)COc3ccc(Cl)c(n3)Oc3cccc(c3)C[C@@H]12 [Example 69, N-[(15aS,16R,17S)-7-chloro-17-fluoro-1-oxo-1,2,15a,16,17,18-hexahydro-15H-4,8-(azeno)-14,10-(metheno)pyrrolo[1,2-d][1,12,4]dioxazacyclo-heptadecin-16-yl]ethanesulfonamide]
16 | 109 | CS(=O)(=O)N[C@@H]1[C@@H]2Cc3cccc(c3F)COc3nc(ccc3Cl)CNC(=O)N2CC1(F)F [Example 94, N-[(16aS,17R)-7-chloro-18,18,21-trifluoro-1-oxo-2,3,16a,17,18,19-hexahydro-1H,10H,16H-4,8-(azeno)-15,11-(metheno)pyrrolo[1,2-j][1,8,10]oxadiazacycloocta-decin-17-yl]methanesulfonamide]
17 | 97 | CCS(=O)(=O)N[C@H]1[C@@H](F)CN2C(=O)COc3ccc(C)c(n3)Oc3cccc(c3)C[C@@H]12 [Example 78, N-[(15aS,16R,17S)-17-fluoro-7-methyl-1-oxo-1,2,15a,16,17,18-hexahydro-15H-4,8-(azeno)-14,10-(metheno)pyrrolo[1,2-d][1,12,4]dioxazacyclo-heptadecin-16-yl]ethanesulfonamide]
18 | 105 | CS(=O)(=O)N[C@@H]1[C@@H]2Cc3cccc(c3F)Oc3nc(ncc3Cl)OCC(=O)N2CC1(F)F [Example 64, N-[(15aS,16R)-7-chloro-17,17,20-trifluoro-1-oxo-1,2,15a,16,17,18-hexahydro-15H-4,8-(azeno)-10,14-(metheno)pyrrolo[2,1-n][1,7,3,15]dioxadiazacyclo-heptadecin-16-yl]methanesulfonamide]
19 | 108 | CS(=O)(=O)N[C@@H]1[C@@H]2Cc3cccc(c3)Oc3nc(ccc3C(F)F)[C@@H]3C[C@@H]3C(=O)N2CC1(F)F (single isomer, unassigned) [Example 107]
